Source: patent publication US10444244B2, “Microfluidic array supporting a lipid bilayer assembly” (DUBLIN CITY UNIVERSITY, priority 2014, dated 2019)

What was measured:
[1] = EIS of DOPC bilayer with K+/H+ gradient after Nigericin incorporation; type: physicochemical; settings: 20 μM from ethanol solution; cavities 150 mM K+, outside citrate buffer pH 4, H+ 10 mMol
Protocol: (§1) Gold microcavity electrodes were formed through the method described herein using electrodeposition of gold through a close packed array of polystyrene spheres (2.88 micron in diameter) after which the spheres where removed by sonication in THF for 30 minutes. The gold microcavity array was then modified with mercaptoethanol (ME) by placing the substrate in a 1 mM solution of ME, in ethanol, for 24 hours. Alternatively it is possible to selectively modify the top surface with mercaptonexanol before removal of the spheres and leave the cavities free of surface modification after sphere removal. This latter approach gives even greater reproducibility.
Nigericin is an antiporter of H+ and K+, Herein, the cavities where prefilled with 150 mM K+ before bilayer formation. Citrate buffer (at pH 4) was then added to the electrolyte to supply the system with H+(10 mMol) ions on the outside of the bilayer. The impedance of the DOPC bilayer was measured in the presence of this ionic gradient.

[2] = EIS of DOPC bilayer with K+/Na+ ion gradient after Valinomycin incorporation; type: physicochemical; settings: 20 μM from ethanol solution; cavities Tris KCl, contacting solution Tris NaCl
Protocol: as §1
After sonication a DOPC bilayer was formed over the micro-cavities using a combination of Langmuir-Blodgett and vesicle fusion as described above.
Electrochemical impedance spectra (EIS) of this bilayer were measured by placing the array in contact with Tris NaCl. This creates an ion gradient across the lipid bilayer. The bilayer, effectively insulates the pore from the external contacting solution but once Valinomycin is introduced this should cause K+ ions to flow from inside the cavities into the bulk solution (see schematic in FIG. 18). The impedance of the DOPC bilayer was measured in the presence of this ionic gradient. Valinomycin was then introduced into the cell by adding 20 μM from an ethanol solution. […]

[3] = FLCS/FCS of labelled lipid diffusion in DOPC bilayer over buffer-filled PDMS cavity array after drug addition; type: physicochemical; settings: for impact on diffusion of the lipophilic BODIPY-HPC probe: PBS pH 7.4, 15 mins incubation, ibuprofen 4-200 μmol, diclofenac 4-800 μmol
Protocol: The lower dye concentration is required for FLCS experiments.
FLCS measurements were recorded over cavities as well as flat PDMS surfaces to obtain the autocorrelation functions for each surface. […] The autocorrelation curves obtained were fit to the 2-dimensional model described in equation 1 to obtain the lateral diffusion co-efficient of the lipids in the bilayer.
where, G(τ) is the autocorrelation function, N is the average number of fluorescent molecules present in the confocal volume, τi is the characteristic residence time, and α is the anomalous parameter which reflects the extent of deviation of diffusion from normal or Brownian motion where α=1, i is the index of the components. The lateral diffusion coefficient, DL, can be obtained as DL=ω^2/4τi. In this equation, ω is the radius of the laser beam used. To determine ω for each excitation, a reference solution of free dye was used for which the diffusion coefficient is known.
The probe is BODIPY labelled DOPE at 1% mol/mol lipid.
Monitoring the diffusion of each probe permitted assessment of interaction of the drug with the membrane and where this interactions occurred; i.e. did it bind to the interface or intercalate in the bilayer? Only a single probe is necessary in most instances, however depending on the sophistication of the FCS instrument two labels can be used in a single two colour experiment or they can be applied in separate experiments to yield detailed insights into the location of the drug at the membrane.

[4] = for decrease in resistivity of DOPC bilayer: between 0 and 400 umol drug, PBS buffer pH 7.4 on both sides of the pore
Protocol: A gold microcavity electrode is first modified with 2-mercaptoethanol by immersing them in a 1 mM solution in ethanol overnight after which they are sonicated in Tris buffer for 30 munities to pre fill the cavities (in the gold electrode or substrate). A DOPC monolayer is then deposited onto the microcavity electrode using a Langmuir-Blödgett deposition of monolayer followed by DOPC disruption at this monolayer to form a bilayer.
Measurements are performed with a potential of 0 V and a frequency range of 0.01 Hz to 100000 Hz with a standard 3 electrode set up with an Ag/AgCl reference electrode. All experiments are performed in Tris NaCl buffer with the cell contained inside a Faraday cage.
Electrochemical Impedance Spectroscopy (EIS) is highly sensitive to changes in the bilayer and this sensitivity can be enhanced by using an electrochemical probe such as ferrocyanide in the contacting solution (i.e., solution contacting the outer surface of the array) or in applying an ionic gradient across the membrane by applying slightly different pH or ionic strength at the solution at each side of the membrane e.g., by pre-filling the cavities with a different ionic strength solution to that contacting solution which will operably be in contact with the top leaflet of the bilayer (i.e. away from the cavity). Within this context the inner membrane leaflet refers to the lipid layer closest to the cavities and the outer leaflet is that the lipid layer pointed away from the cavities and operably in contact with the contacting solution that is introduced into the inlet and out through the outlet of the microfluidic platform.
The experiment was carried out in PBS buffer at pH 7.4 at room temperature with cavities filled with same buffer solution. A microfluidic platform having an inlet and outlet (similar to the platform of FIG. 2) is used to introduce the ibuprofen to the bilayer.
The bilayers are stable to introduction of several volumes of buffer at the end of a study and we were able to monitor for reversibility of binding.

[5] = Electrorelease of CD from cavity to cholesterol containing bilayer, bilayer resistance; type: physicochemical
Excerpt: As an example. Mercaptoferrocene was self-assembled only at the inner cavity surface and a blocking thiolated alcohol (mercaptoethanol or mercaptohexanol) was assembled at the top surface of the array, by modification of the top surface of the array prior to release of the templating sphere and then adhering the ferrocene after sphere removal. The ferrocene binds selectively to streptavidin modified beta-cyclodextrin (CD-streptavidin) which is assembled prior to assembly of the DOPC/DOPC biotinylated bilayer. Application of 0.5 V vs Ag/AgCl results in oxidation of the ferrocene, which in the presence of Na+ acquires a permanent positive charge, preventing reassembly of the CD-streptavidin. The released CD-streptavidin diffuses to the bilayer where its streptavidin pendant recognises and binds to biotin. Such electrorelease can be combined with EIS to allow for the detection of interaction of released agent with the bilayer, and/or it can also be combined with spectroscopic methods, such as Raman and fluorescence spectroscopy for further investigation. […] In principle, the quantity of cholesterol removed can be controlled by altering the quantity of CD at the cavity through use of a mixed monolayer

[6] = DOPC bilayer, 2.8 um PDMS pores

CO[C@@H]1C[C@@H](C[C@H]2CC[C@H](C)[C@H]([C@@H](C)C(=O)O)O2)O[C@]2(O[C@](C)([C@H]3CC[C@@](C)([C@@H]4O[C@@H]([C@H]5O[C@@](O)(CO)[C@H](C)C[C@@H]5C)C[C@@H]4C)O3)C[C@H]2C)[C@@H]1C [Nigericin]
change of bilayer resistance after ionophore incorporation [1]: a decrease in the resistance was observed

CC(C)[C@@H]1NC(=O)[C@H](C)OC(=O)[C@@H](C(C)C)NC(=O)[C@@H](C(C)C)OC(=O)[C@H](C(C)C)NC(=O)[C@H](C)OC(=O)[C@@H](C(C)C)NC(=O)[C@@H](C(C)C)OC(=O)[C@H](C(C)C)NC(=O)[C@H](C)OC(=O)[C@@H](C(C)C)NC(=O)[C@@H](C(C)C)OC1=O [Valinomycin]
change of bilayer resistance after ionophore incorporation [2]: a decrease in the resistance was observed

O=C(O)Cc1ccccc1Nc1c(Cl)cccc1Cl [diclofenac]
diffusion coefficient of Atto-655 labelled DOPE ([3]; 800 μmol diclofenac, DOPC bilayer, PBS pH 7.4, at 0 drug 11.71±0.82): 43.5±8.13 μm^2 s^−1 | impact on diffusion of the lipophilic BODIPY-HPC probe [3, 6]: little effect | decrease in resistivity of DOPC bilayer [4]: 65%

CC(C)Cc1ccc(C(C)C(=O)O)cc1 (stereo not drawn) [ibuprofen]
diffusion coefficient of the ATTO probe (DOPE-ATTO655) ([3]; 100 μmol of ibuprofen, DOPC bilayer, PBS pH 7.4, without drug 10.37±0.72): 12.05±0.6 μm^2 s^−1 | impact on diffusion of the lipophilic BODIPY-HPC probe [3, 6]: little impact | membrane lipid diffusion coefficient after exposure of the bilayer ([3]; ibuprofen 4 mMol, DOPC bilayer with 1% mol/mol BODIPY labelled DOPE, 2.8 um PDMS pores, PBS pH 7.4, room temperature, without drug approximately 7): approximately 9.5 μms^−1 | decrease in resistivity of DOPC bilayer [4]: roughly 6% | effect on capacitance of the layer ([4]; ibuprofen at 4 and then 8 mMol, 2.8 μm gold cavity arrays, PBS pH 7.4): initially in a decrease followed by a substantial increase in capacitance | effect on impedance of the bilayer at equilibrium ([4]; ibuprofen at 4 and then 8 mMol, 2.8 μm gold cavity arrays, PBS pH 7.4, room temperature, ferrocyanide redox probe): decrease in impedance

OC[C@H]1O[C@@H]2O[C@H]3[C@H](O)[C@@H](O)[C@@H](O[C@H]4[C@H](O)[C@@H](O)[C@@H](O[C@H]5[C@H](O)[C@@H](O)[C@@H](O[C@H]6[C@H](O)[C@@H](O)[C@@H](O[C@H]7[C@H](O)[C@@H](O)[C@@H](O[C@H]8[C@H](O)[C@@H](O)[C@@H](O[C@H]1[C@H](O)[C@H]2O)O[C@@H]8CO)O[C@@H]7CO)O[C@@H]6CO)O[C@@H]5CO)O[C@@H]4CO)O[C@@H]3CO [unlabeled CD, beta-cyclodextrin]
effect of electroreleased agent on cholesterol containing bilayer [5]: removal of cholesterol from the bilayer, reflected in a decrease in resistance of the bilayer film
